Assay results published in ChEMBL document CHEMBL3870328, “Synthesis of novel Ral inhibitors: An in vitro and in vivo study” (Bioorg Med Chem Lett, 2016).

Tests used:
[1] = Drug uptake in brain of mouse xenografted with human NCI-H2122 cells at 50 mg/kg, ip after 3 hrs by LC-MS/MS analysis; format: ADME, organism-based; details: read-out: Drug uptake
[2] = Drug uptake in heart of mouse xenografted with human NCI-H2122 cells at 50 mg/kg, ip after 3 hrs by LC-MS/MS analysis; format: ADME, organism-based; details: read-out: Drug uptake
[3] = Drug uptake in kidney of mouse xenografted with human NCI-H2122 cells at 50 mg/kg, ip after 3 hrs by LC-MS/MS analysis; format: ADME, organism-based; details: read-out: Drug uptake
[4] = Drug uptake in liver of mouse xenografted with human NCI-H2122 cells at 50 mg/kg, ip after 3 hrs by LC-MS/MS analysis; format: ADME, organism-based; details: read-out: Drug uptake
[5] = Drug uptake in lungs of mouse xenografted with human NCI-H2122 cells at 50 mg/kg, ip after 3 hrs by LC-MS/MS analysis; format: ADME, organism-based; details: lung, read-out: Drug uptake
[6] = Plasma concentration in mouse xenografted with human NCI-H2122 cells at 50 mg/kg, ip after 3 hrs by LC-MS/MS analysis; format: ADME, organism-based
[7] = Drug metabolism in CD1 mouse liver microsomes assessed as CYP450-mediated mono-oxidation by measuring 6-amino-4-(2,5-dihydroxyphenyl)-3-(naphthalen-2-yl)-1,4-dihydropyrano[2,3-c]pyrazole-5-carbonitrile metabolite formation at 16.7 uM after 10 mins in presence of NADPH by LC-MS/MS analysis; format: ADME
[8] = Drug metabolism in CD1 mouse liver microsomes assessed as CYP450-mediated mono-oxidation by measuring M1 metabolite formation at 16.7 uM after 10 mins in presence of NADPH by LC-MS/MS analysis; format: ADME
[9] = Drug metabolism in CD1 mouse liver microsomes assessed as CYP450-mediated mono-oxidation by measuring M3 metabolite formation at 16.7 uM after 10 mins in presence of NADPH by LC-MS/MS analysis; format: ADME
[10] = Drug metabolism in CD1 mouse liver microsomes assessed as CYP450-mediated mono-oxidation by measuring M5 metabolite formation at 16.7 uM after 10 mins in presence of NADPH by LC-MS/MS analysis; format: ADME
[11] = Drug metabolism in mouse xenografted with human NCI-H2122 cells assessed as M1 metabolite formation in kidney at 50 mg/kg, ip after 3 hrs by LC-MS/MS analysis; format: ADME, organism-based; details: in vivo
[12] = Drug metabolism in mouse xenografted with human NCI-H2122 cells assessed as M1 metabolite formation in liver at 50 mg/kg, ip after 3 hrs by LC-MS/MS analysis; format: ADME, organism-based; details: in vivo
[13] = Drug metabolism in mouse xenografted with human NCI-H2122 cells assessed as M1 metabolite formation in lungs at 50 mg/kg, ip after 3 hrs by LC-MS/MS analysis; format: ADME, organism-based, Lung; details: in vivo
[14] = Drug metabolism in mouse xenografted with human NCI-H2122 cells assessed as M1 metabolite formation in heart at 50 mg/kg, ip after 3 hrs by LC-MS/MS analysis; format: ADME, organism-based; details: in vivo
[15] = Drug metabolism in mouse xenografted with human NCI-H2122 cells assessed as 6-amino-4-(2,5-dihydroxyphenyl)-3-(naphthalen-2-yl)-1,4-dihydropyrano[2,3-c]pyrazole-5-carbonitrile metabolite formation in plasma at 50 mg/kg, ip after 3 hrs by LC-MS/MS analysis; format: ADME, organism-based; details: in vivo
[16] = Drug metabolism in mouse xenografted with human NCI-H2122 cells assessed as 6-amino-4-(2,5-dihydroxyphenyl)-3-(naphthalen-2-yl)-1,4-dihydropyrano[2,3-c]pyrazole-5-carbonitrile metabolite formation in tumor at 50 mg/kg, ip after 3 hrs by LC-MS/MS analysis; format: ADME, organism-based, Neoplasm; details: in vivo
[17] = Drug metabolism in mouse xenografted with human NCI-H2122 cells assessed as 6-amino-4-(2,5-dihydroxyphenyl)-3-(naphthalen-2-yl)-1,4-dihydropyrano[2,3-c]pyrazole-5-carbonitrile metabolite formation in kidney at 50 mg/kg, ip after 3 hrs by LC-MS/MS analysis; format: ADME, organism-based; details: in vivo
[18] = Drug metabolism in mouse xenografted with human NCI-H2122 cells assessed as 6-amino-4-(2,5-dihydroxyphenyl)-3-(naphthalen-2-yl)-1,4-dihydropyrano[2,3-c]pyrazole-5-carbonitrile metabolite formation in lungs at 50 mg/kg, ip after 3 hrs by LC-MS/MS analysis; format: ADME, organism-based, Lung; details: in vivo
[19] = Drug metabolism in mouse xenografted with human NCI-H2122 cells assessed as 6-amino-4-(2,5-dihydroxyphenyl)-3-(naphthalen-2-yl)-1,4-dihydropyrano[2,3-c]pyrazole-5-carbonitrile metabolite formation in heart at 50 mg/kg, ip after 3 hrs by LC-MS/MS analysis; format: ADME, organism-based; details: in vivo, BLD = below limit of detection
[20] = Drug metabolism in mouse xenografted with human NCI-H2122 cells assessed as M3 metabolite formation in plasma at 50 mg/kg, ip after 3 hrs by LC-MS/MS analysis; format: ADME, organism-based; details: in vivo
[21] = Drug metabolism in mouse xenografted with human NCI-H2122 cells assessed as M3 metabolite formation in tumor at 50 mg/kg, ip after 3 hrs by LC-MS/MS analysis; format: ADME, organism-based, Neoplasm; details: in vivo
[22] = Drug metabolism in mouse xenografted with human NCI-H2122 cells assessed as M3 metabolite formation in liver at 50 mg/kg, ip after 3 hrs by LC-MS/MS analysis; format: ADME, organism-based; details: in vivo
[23] = Drug metabolism in mouse xenografted with human NCI-H2122 cells assessed as M3 metabolite formation in lungs at 50 mg/kg, ip after 3 hrs by LC-MS/MS analysis; format: ADME, organism-based, Lung; details: in vivo
[24] = Drug metabolism in mouse xenografted with human NCI-H2122 cells assessed as M3 metabolite formation in heart at 50 mg/kg, ip after 3 hrs by LC-MS/MS analysis; format: ADME, organism-based; details: in vivo
[25] = Drug metabolism in mouse xenografted with human NCI-H2122 cells assessed as M4 metabolite formation in plasma at 50 mg/kg, ip after 3 hrs by LC-MS/MS analysis; format: ADME, organism-based; details: in vivo
[26] = Drug metabolism in mouse xenografted with human NCI-H2122 cells assessed as M4 metabolite formation in tumor at 50 mg/kg, ip after 3 hrs by LC-MS/MS analysis; format: ADME, organism-based, Neoplasm; details: in vivo
[27] = Drug metabolism in mouse xenografted with human NCI-H2122 cells assessed as M4 metabolite formation in heart at 50 mg/kg, ip after 3 hrs by LC-MS/MS analysis; format: ADME, organism-based; details: in vivo
[28] = Drug metabolism in mouse xenografted with human NCI-H2122 cells assessed as M5 metabolite formation in plasma at 50 mg/kg, ip after 3 hrs by LC-MS/MS analysis; format: ADME, organism-based; details: in vivo
[29] = Drug metabolism in mouse xenografted with human NCI-H2122 cells assessed as M5 metabolite formation in tumor at 50 mg/kg, ip after 3 hrs by LC-MS/MS analysis; format: ADME, organism-based, Neoplasm; details: in vivo
[30] = Drug metabolism in mouse xenografted with human NCI-H2122 cells assessed as M5 metabolite formation in liver at 50 mg/kg, ip after 3 hrs by LC-MS/MS analysis; format: ADME, organism-based; details: in vivo
[31] = Drug metabolism in mouse xenografted with human NCI-H2122 cells assessed as M5 metabolite formation in lungs at 50 mg/kg, ip after 3 hrs by LC-MS/MS analysis; format: ADME, organism-based, Lung; details: in vivo

concentration at 3 h [1]: 570 ng/g
concentration at 3 h [2]: 13700 ng/g
concentration at 3 h [3]: 24600 ng/g
concentration at 3 h [4]: 39700 ng/g
concentration at 3 h [5]: 21600 ng/g
concentration at 3 h [6]: 3910 ng/mL
Drug metabolism [7]: Metabolite_Detected
Drug metabolism [8]: Metabolite_Detected
Drug metabolism [9]: Metabolite_Detected
Drug metabolism [10]: Metabolite_Detected
Drug metabolism [11]: 135.2 ng/g
Drug metabolism [12]: 557.4 ng/g
Drug metabolism [13]: 18.2 ng/g
Drug metabolism [14]: 12.4 ng/g
Drug metabolism [15]: 8.4 ng/mL
Drug metabolism [16]: 0.6 ng/g
Drug metabolism [17]: 3.7 ng/g
Drug metabolism [18]: 1.1 ng/g
Drug metabolism [19]: Bld
Drug metabolism [20]: 14.2 ng/mL
Drug metabolism [21]: 0.7 ng/g
Drug metabolism [22]: 49.6 ng/g
Drug metabolism [23]: 2 ng/g
Drug metabolism [24]: 1.1 ng/g
Drug metabolism [25]: 37.8 ng/mL
Drug metabolism [26]: 10.2 ng/g
Drug metabolism [27]: 33.5 ng/g
Drug metabolism [28]: 2.7 ng/mL
Drug metabolism [29]: 1.4 ng/g
Drug metabolism [30]: 72.6 ng/g
Drug metabolism [31]: 11.5 ng/g
Compound: COc1ccc(OC)c(C2C(C#N)=C(N)Oc3[nH]nc(-c4ccc5ccccc5c4)c32)c1 (stereo unspecified)
